Measured values as given in US12686690B2, “Macrocyclic urea orexin receptor agonists” (Merck Sharp & Dohme LLC, priority 2020, dated 2026).

Biological target: T1, hOX2R (Homo sapiens, UniProt O43614)
T1 construct: expressed in transfected cells; host or cells: CHO cells (G418 selection)
T1 sequence (O43614 1-444): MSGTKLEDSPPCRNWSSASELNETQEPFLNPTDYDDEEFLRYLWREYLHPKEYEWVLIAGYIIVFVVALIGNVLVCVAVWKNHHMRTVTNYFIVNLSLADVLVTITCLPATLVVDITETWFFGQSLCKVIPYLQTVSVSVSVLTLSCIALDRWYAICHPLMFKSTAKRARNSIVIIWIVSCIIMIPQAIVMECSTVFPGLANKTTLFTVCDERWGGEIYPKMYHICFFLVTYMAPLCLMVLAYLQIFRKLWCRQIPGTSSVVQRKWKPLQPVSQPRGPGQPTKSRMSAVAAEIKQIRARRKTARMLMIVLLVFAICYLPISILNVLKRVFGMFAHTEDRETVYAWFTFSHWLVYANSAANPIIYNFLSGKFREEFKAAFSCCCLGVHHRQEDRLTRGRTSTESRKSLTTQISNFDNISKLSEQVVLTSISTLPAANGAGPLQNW
Assay: hOX2R IPone assay (orexin receptor agonism)
Type: cell-based
Details: IPone readout; for hOX2R_Ipone max %act: maximal activation; for EC50: orexin receptor agonist, read-out: hOX2R_IPone EC50

| hOX2R_Ipone max %act [%] | EC50 [nM] | SMILES |
| --- | --- | --- |
| 82.8 | 4710 | CCN1C(=O)NCCCCCOc2nc(cn3ncnc23)-c2cc(ncc2OC)C1C(F)(F)F (stereo not shown) [Example 35, 13-ethyl-8-methoxy-12-(trifluoromethyl)-12,13,15,16,17,18,19,20-octahydro-14H-6,22-(azeno)-11,7-(metheno) [1,2,4]triazolo[5,1-c][1,4,10,13,15]oxatetra-azacycloicosin-14-one] |
| 101.1 | 16.4 | CCN1C(=O)N[C@@H](CCC(F)(F)F)CCCCOc2nc(cn3ncnc23)-c2cc(ncc2OC)C1C(F)(F)F (single isomer, unassigned) [Example 34B] |
| 100.4 | 1 | CCN1Cc2ccc(OC)c(c2)-c2cn3ccnc3c(n2)OCCCC[C@H](CCC(F)(F)F)NC1=O [Example 44, (16R)-13-ethyl-8-methoxy-16-(3,3,3-trifluoropropyl)-12,13,15,16,17,18,19,20-octahydro-14H-6,22-(azeno)-11,7-(metheno)imidazo[2,1-c][1,4,13,15]oxatriaza-cycloicosin-14-one] |
| 102.8 | 5.24 | CCN1C(=O)N[C@@H](CCC(F)(F)F)CCCCCOc2cc(cc3ccnn23)-n2nc(cc2C2CC2)C1C (mixture of isomers) [Example 210, (16E,22E,7R)-25-cyclopropyl-4-ethyl-3-methyl-7-(3,3,3-trifluoropropyl)-21H-13-oxa-4,6-diaza-1(5,7)-pyrazolo[1,5-a]pyridina-2(1,3)-pyrazolacyclotridecaphan-5-one] |
| 103.1 | 0.58 | CCN1C(=O)NC(CCC(F)(F)F)CCCCCOc2nc(cn3ccnc23)-c2cc(ncc2Cl)[C@H]1C (stereo partly drawn) [Example 198, (3R,E)-25-chloro-4-ethyl-3-methyl-7-(3,3,3-trifluoropropyl)-13-oxa-4,6-diaza-1(6,8)-imidazo[1,2-a]pyrazina-2(4,2)-pyridinacyclotri-decaphan-5-one] |
| 102.4 | 3.69 | CCN1C(=O)N[C@@H](CCC(F)(F)F)CCCCCOc2nc(cn3ncnc23)-c2nc(ncc2OC)[C@H]1C [Example 147, (3R,7R,E)-4-ethyl-25-methoxy-3-methyl-7-(3,3,3-trifluoropropyl)-13-oxa-4,6-diaza-1(6,8)-[1,2,4]triazolo[1,5-a]pyrazina-2(4,2)-pyrimidinacyclotridecaphan-5-one] |
| 101.4 | 0.84 | CCN1C(=O)NC(C2CC(F)(F)C2)CCCCCOc2nc(cn3ccnc23)-c2cc(ncc2OC)[C@H]1C (stereo partly drawn) [Example 195, (3R,E)-7-(3,3-difluorocyclobutyl)-4-ethyl-25-methoxy-3-methyl-13-oxa-4,6-diaza-1(6,8)-imidazo[1,2-a]pyrazina-2(4,2)-pyridinacyclotri-decaphan-5-one] |
| 102.3 | 0.7 | CCN1C(=O)N[C@@H](CCC(F)(F)F)CCCCCOc2nc(cc3ccnn23)-c2cc(ncc2OC)C1C (single isomer, unassigned) [Example 88B] |
| 99.08 | 183 | CCN1C(=O)N[C@@H](CCC(F)(F)F)CCCCCOc2nc(cn3ccnc23)-c2cc(cc(C)n2)[C@@H]1C [Example 118A, (12S,16R)-13-ethyl-9,12-dimethyl-16-(3,3,3-trifluoropropyl)-12,13,16,17,18,19,20,21-octahydro-6,23-(azeno)-11,7-(metheno)imidazo[2,1-c][1,4,8,13,15]oxatetraazacyclohenicosin-14(15H)-one] |
| 100.6 | 14.9 | CCN1C(=O)N[C@@H](CCC(F)(F)F)CCCCCOc2nc(cn3ccnc23)C2=CN=C(O2)C1C (stereo partly drawn) [Example 108, (15R)-12-ethyl-11-methyl-15-(3,3,3-trifluoropropyl)-11,12,15,16,17,18,19, 20-octahydro-6,22-(azeno)-7,10-epoxyimidazo[2,1-c][1,4,9,12,14]oxatet-raazacycloicosin-13(14H)-one] |
| 104.7 | 4.29 | CCN1C(=O)NC(CC(C)(F)F)CCCCCOc2nc(nn3ccnc23)-c2cc(ncc2OC)[C@H]1C (stereo partly drawn) [Example 207, (3R,E)-7-(2,2-difluoropropyl)-4-ethyl-25-methoxy-3-methyl-13-oxa-4,6-diaza-1(2,4)-imidazo[2,1-f][1,2,4]triazina-2(4,2)-pyridinacyclo-tridecaphan-5-one] |
| 93.8 | 9.06 | CCN1C(=O)N[C@@H](CCC(F)(F)F)COCCCOc2nc(cn3ncnc23)-c2ccnc(c2F)[C@H]1C (single isomer, unassigned) [Example 175] |
| 100.1 | 0.98 | CCN1C(=O)NC(c2nnnn2C)CCCCCOc2nc(cn3ccnc23)-c2cc(ncc2OC)[C@H]1C (stereo partly drawn) [Example 217, (3R,E)-4-ethyl-2^5-methoxy-3-methyl-7-(1-methyl-1H-tetrazol-5-yl)-13-oxa-4,6-diaza-1(6,8)-imidazo[1,2-a]pyrazina-2(4,2)-pyridinacyclotridecaphan-5-one] |
| 101.5 | 1.5 | CCN1C(=O)NC(C2CCOCC2)CCCCCOc2nc(cn3ccnc23)-c2cc(ncc2OC)[C@H]1C (single isomer, unassigned) [Example 68B] |
| 100.1 | 166 | CCN1C(=O)N[C@@H](CCC(F)(F)F)CCCCCOc2nc(cn3ccnc23)-c2cc(nc(C)n2)[C@@H]1C [Example 119A, (12S,16R)-13-ethyl-9,12-dimethyl-16-(3,3,3-trifluoropropyl)-12,13,16,17,18,19,20,21-octahydro-6,23-(azeno)-11,7-(metheno)imidazo[2,1-c][1,4,8,10,13,15]oxapentaazacyclohenicosin-14(15H)-one] |
| 97.5 | 1060 | CCN1C(=O)N[C@@H](C(F)(F)F)CCCCOc2nc(cn3ccnc23)-c2cc(ncc2OC)C1C(F)(F)F (single isomer, unassigned) [Example 39B] |
| 102 | 1.48 | CCN1C(=O)NC(CC(O)C(F)(F)F)CCCCCOc2cn3ncnc3c(n2)-c2cc(ncc2OC)C1C [Example 130, (3R,7R,E)-4-ethyl-25-methoxy-3-methyl-7-((R)-3,3,3-trifluoro-2-hydroxypropyl)-13-oxa-4,6-diaza-1(6,8)-[1,2,4]triazolo[1,5-a]pyrazina-2(4,2)-pyridinacyclotridecaphan-5-one] |
| 100.3 | 1.32 | CCN1C(=O)NC(CCC(F)(F)F)CCCCCOc2cc(n3nccc3c2)-c2ccnc(c2)C1C [Example 156, (3R,7R,E)-4-ethyl-3-methyl-7-(3,3,3-trifluoropropyl)-13-oxa-4,6-diaza-1(5,7)-pyrazolo[1,5-a]pyridina-2(4,2)-pyridinacyclotridecaphan-5-one] |
| 101.2 | 1.2 | CCN1C(=O)N[C@@H](CCC(F)(F)F)CCCCOc2nc(cn3ccnc23)-c2cc(ncc2OC)C1C (stereo in doubt) [Example 40, (12S,16R)-13-ethyl-8-methoxy-12-methyl-16-(3,3,3-trifluoropropyl)-12,13,15,16,17,18,19,20-octahydro-14H-6,22-(azeno)-11,7-(metheno)imidazo[2,1-c][1,4,10,13,15]oxatetra-azacycloicosin-14-one] |
| 101.7 | 2.66 | CCN1C(=O)N[C@@H](CCC(F)(F)F)CCOCCOc2nc(cn3ccnc23)-c2cc(ccn2)[C@H]1C [Example 161, (3R,7S,E)-4-ethyl-3-methyl-7-(3,3,3-trifluoropropyl)-10,13-dioxa-4,6-diaza-1(6,8)-imidazo[1,2-a]pyrazina-2(2,4)-pyridinacyclotridecaphan-5-one] |
| 97.1 | 337 | CCN1C(=O)NC(c2cscn2)CCCCCOc2nc(cn3ccnc23)-c2cccc(c2)[C@H]1C (single isomer, unassigned) [Example 19A] |
| 101.6 | 1.6 | CCN1C(=O)NC(CCC(C)(C)F)CCCCCOc2nc(cn3ccnc23)-c2cc(ncc2OC)[C@H]1C (single isomer, unassigned) [Example 71B] |
| 99.3 | 0.5 | CCN1C(=O)NC(CC2CC2(F)F)CCCCCOc2nc(cn3ccnc23)-c2cc(ncc2OC)[C@H]1C (single isomer, unassigned) [Example 59C] |
| 101.7 | 26 | CCN1C(=O)N[C@@H](CCC(F)(F)F)CCCCCOc2nc(cn3ccnc23)-c2nc(ncc2OC)[C@@H]1C [Example 117A, (12S,16R)-13-ethyl-8-methoxy-12-methyl-16-(3,3,3-trifluoropropyl)-12,13,16,17,18,19,20,21-octahydro-6,23:11,7-di(azeno)imidazo[2,1-c][1,4,10,13,15]oxatetraazacyclohenicosin-14(15H)-one] |

| SMILES | hOX2R_Ipone max %act [%] | EC50 [nM] |
| --- | --- | --- |
| CCN1C(=O)NCCCOCCOc2nc(cn3ccnc23)-c2cccc(c2)[C@H]1C [Example 14, (12R)-13-ethyl-12-methyl-12,13,15,16,17,18, 20,21-octahydro-14H-6,23-(azeno)-11,7-(metheno)imidazo [2,1-f][1,4,7,16, 18]dioxatriaza-cyclohenicosin-14-one] | 101 | 9.7 |
| CCN1C(=O)NCCCC(C)(C)COc2nc(cn3ccnc23)-c2cccc(c2)[C@H]1C [Example 13, (12R)-13-ethyl-12,19,19-tri-methyl-12,13,15, 16,17,18,19,20-octahydro-14H-6,22-(azeno)-11,7-(metheno) imidazo[2,1-c][1,4,13,15]oxa-triazacycloicosin-14-one] | 98.2 | 634 |
